# Values of other authors in patent US4039519A, “Broad spectrum antibiotics and method” (Chimie & Biologie, priority 1975, dated 1977).
# Conditions: oral administration; cited from earlier work
substance,measurement,value
colistine,passage of the gastro-intestinal barrier (known),cannot pass the gastro-intestinal barrier
